From patent US20060167106A1, “Compounds acting at the centrosome” (priority 2004, published 2006)
Entries after “also recorded” stand apart in the source; their conditions may differ.

Legend:
CV-1 cells [1] = assay: Actin (phalloidin) fluorescence in CV-1 cells; format: cell-based, monkey; settings: 0.5 μM, 6 hours
Protocol: CV-1 cells were obtained from ATCC and grown in chamber slides (Labtek, Campbell, Calif.) for 24 hours in 90% Eagle's MEM with 10% BCS before treatment. […] Cells were then washed in PBS and fixed in 3.7% formaldehyde solution in PBS for 10 minutes at room temperature. Cells were washed again twice in PBS for 5 minutes before incubation with AlexaFluoR488 conjugated phalloidin (1:40 dilution; Molecular Probes, Eugene, Oreg.) and 1% bovine serum albumin (BSA) in PBS at 37° C. for 30 minutes.

HeLa cells = assay: Oregon Green 488-Taxol localization in HeLa cells; format: cell-based; settings: 0.5 μM Compound 1
Protocol: (§1) A fluorescent compound, Oregon Green 488-Taxol (Molecular Probes/Invitrogen), was utilized to determine the distribution of Taxol in CHO cells (FIG. 33). In addition, the targeting of fluorescent Taxol to centrosomes was examined in Compound 1-treated cells (FIG. 34). Non-transfected wild-type CHO cells and HeLa cells were cultured in 2-well chambered cover-slips for 24-48 hours before treatment. Oregon Green 488-Taxol stock solution was made with DMSO. […] Oregon Green 488-Taxol fluorescence in living cells or fixed cells was imaged using a standard filter for FITC with the Nikon TE300 microscope/digital imaging system.

Aurora-A kinase = target: T1, Aurora-A kinase (Homo sapiens, UniProt O14965); assay: Aurora-A Kinase Assay (ELISA, Lats2 phosphorylation); format: biochemical; settings: 50 nM to 50 μM
T1 construct: purchased MBL International (CycLex)
T1 sequence (O14965 1-403): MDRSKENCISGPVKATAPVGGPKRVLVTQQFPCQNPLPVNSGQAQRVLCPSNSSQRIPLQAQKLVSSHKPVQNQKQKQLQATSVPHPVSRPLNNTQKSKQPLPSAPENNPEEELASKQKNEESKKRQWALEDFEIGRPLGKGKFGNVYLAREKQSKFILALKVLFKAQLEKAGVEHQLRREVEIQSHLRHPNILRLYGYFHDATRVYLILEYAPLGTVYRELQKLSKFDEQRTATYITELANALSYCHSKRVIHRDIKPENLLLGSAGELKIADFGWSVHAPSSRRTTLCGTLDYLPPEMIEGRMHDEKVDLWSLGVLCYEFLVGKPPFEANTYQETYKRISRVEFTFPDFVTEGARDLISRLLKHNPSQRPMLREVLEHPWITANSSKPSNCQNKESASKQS
Protocol: In the assay, the amount of phosphorylated substrate is measured by binding to ST-3B11, an anti-phospho-Lats2 serine83 monoclonal antibody, subsequently incubating with horseradish peroxidase-conjugated anti-mouse IgG, which then catalyzes the conversion of the chromogenic substrate tetra-methylbenzidine (TMB) from a colorless solution to a blue solution. The color is then quantified by spectrophotometry, which reflects the relative amount of Aurora-A activity in the sample.
The assay was then performed according to the manufacturer's instructions using 40 Units/well of recombinant Aurora A enzyme. In the ‘enzyme control’ Aurora A enzyme and the ‘ATP minus control’, ATP was omitted from the reaction mixture. […] The color was quantified using a spectrophotometer (Perkin Elmer HTS 7000 Bio Assay Reader) at 450/535 nm wavelengths.

CV-1 cells [2] = assay: Cell morphology, time-lapse imaging of CV-1 cells; format: cell-based, monkey; settings: 500 nM
Protocol: CV-1 cells and CHO cells were previously cultured in 2-well chambered cover-slips for 48 hours and incubated in 15 mM HEPES buffer-containing Ham's F-12/DMEM medium with different compounds. The cells were imaged using phase contrast settings with the Nikon TE300 microscope/digital imaging system. The cells were imaged ‘simultaneously’ under control of MetaVue software by capturing frames for cells from different conditions at the same time period using a motorized automated XYZ stage.
[…] […] A very low concentration of Taxol (10 nM) was used.

CV-1 cells [3] = assay: α-tubulin immunofluorescence, microtubule network in CV-1 cells; format: cell-based, monkey; settings: 0.5 μM, 5 hours
Protocol: Before treatment, cells were grown in chamber slides for 24 hours in culture media containing 90% Eagle's MEM and 10% BCS. […] Cells were then washed in PBS and fixed in ice-cold 50/50 methanol/acetone for 10 minutes. […] Sigma, St. Louis, Mo.). Subsequently, slides were washed in PBS, incubated with an AlexaFluoR488-conjugated anti-mouse antibody (Molecular Probes, Eugene, Oreg.) at 37° C. for 30 minutes.

[4] = system: CRL-2261 (non-Hodgkin's lymphoma); assay: Viability and cell growth of CRL-2261 cells; format: cell-based; settings: for Total cells (×10^6): CRL-2261, 36 hour treatment; for Total cells (×10^7): CRL-2261, 48 hour treatment
Protocol: (§2) The viability and cell growth of two lymphoma cell lines, CRL-2261 (non-Hodgkin's lymphoma) and U937 (histiocytic lymphoma), were assayed following treatment with Compound 1 for 36-48 hours. Viability of the cells was determined using a kit from Molecular Probes (Eugene, Oreg.) that labels live cells green (calcein AM) and dead cells red (ethidium homodimer) according to manufacturer's instructions. Fluorescence of calcein and ethidium homodimer in cells was imaged using standard filters for FITC and Texas Red, respectively, with the Nikon TE300 microscope/digital imaging system.

[5] = system: bovine microtubule-associated protein (MAP)-free tubulin; assay: Tubulin Polymerization Assay (MAP-free tubulin); format: biochemical
Protocol: For in vitro tubulin polymerization assays, lyophilized bovine microtubule-associated protein (MAP)-free tubulin and PEM buffer (80 mM Na-PIPES (pH 6.9), 1 mM MgCl2, 1 mM EGTA) were purchased from Cytoskeleton (Denver, Colo.). MAP-free tubulin (1.5 mg/ml) was incubated with the test compounds, 0.5 μM Compound 1, 3 μM Taxol, 0.5 μM Compound 1+3 μM Taxol or 0.5 μM Compound 1+30 nM Taxol in PEM-0.3% DMSO. Absorbance at 340 nm was measured every minute for 60 min at 37° C. using a Perkin Elmer HTS 7000 spectrophotometer.

[6] = system: U937 (histiocytic lymphoma); assay: Viability and cell growth of U937 cells; format: cell-based; settings: for Total cells (×10^6): U937, 36 hour treatment
Protocol: as §2

CHO cells = assay: Oregon Green 488-Taxol localization in CHO cells; format: cell-based, Chinese hamster; settings: 0.5 μM Compound 1
Protocol: as §1

[7] = system: MDA-435 breast cancer cells; assay: Multi-ubiquitin Western blotting in MDA-435 cells; format: cell-based; settings: for increase of ubiquitinated proteins of the cell lysates: 500 nM
Protocol: Louis, Mo.) immediately before use, on ice for 1 hour. After scraping, the lysates were cleared by centrifugation at 13,000 RPM for 10 minutes at 4° C. Protein content was determined using a Bradford assay and bovine serum albumin as a standard (Bio-Rad Laboratories, Hercules, Calif.). Samples were solubilized by boiling in SDS sample buffer and subjected to SDS-PAGE. The proteins were subsequently transferred to a PVDF membrane (Bio-Rad, Hercules, Calif.). […] The alkaline phosphatase-conjugated secondary antibodies (Invitrogen, Carlsbad, Calif.) were diluted in blocking buffer and incubated with the blot for 1 hour at room temperature. The secondary antibodies were detected by the Western Breeze Chemiluminescent Kit (Invitrogen, Carlsbad, Calif.) and imaged using a Kodak 440 Image Station. Proteins targeted for degradation by the ubiquitin-dependent proteolytic pathway are tagged with multi-ubiquitin molecules. […] In this assay, accumulation of multi-ubiquitinated proteins in the cells is indicative of the impairment of proteasome activity.

CN(NC(=O)CC(=O)NN(C)C(=S)c1ccccc1)C(=S)c1ccccc1 [Compound 1]
organization of the actin network (CV-1 cells [1]): dramatic alterations in the cells' actin cytoskeletal networks; also recorded: induced the disappearance of cytosolic actin bundles | effect on the accumulation of Taxol (Oregon Green 488-Taxol) at centrosomes (HeLa cells): no effect on the accumulation of Taxol at centrosomes | inhibition of the phosphorylation of Lats2 by Aurora-A kinase (Aurora-A kinase): did not inhibit the phosphorylation of Lats2 by Aurora-A kinase | changes in the shape of the cell (CV-1 cells [2]; CV-1 cell, 4 hours): shrinkage of cell body relative to FIG. 19D | changes in the shape of live cells (CV-1 cells [2]; CV-1 cells, 4 hours): shrinkage of cell bodies | beginning of cell shrinkage after treatment (CV-1 cells [2]; non-transfected CV-1 cells): 1.5 h | organization of the microtubule network (CV-1 cells [3]): dramatic alterations in the cells' microtubule network; also recorded: loss of centrosomal enucleated microtubules, clearing up of microtubules from the cytosol, and coiling up of microtubules around the nucleus and at the cell periphery; also recorded: disruption of the microtubule network | cell death / growth inhibition of CRL-2261 cells ([4]; 36-48 hours): significant cell death of CRL-2261 cells; also recorded: more significantly inhibited than growth of U937 cells | Total cells (×10^6) ([4]; 500 nM): 0.69 ×10^6 | Total cells (×10^6) ([4]; 5000 nM): 0.75 ×10^6 | Total cells (×10^7) ([4]; 0.5 nM): 1.32 ×10^7 | Total cells (×10^7) ([4]; 5 nM): 1.11 ×10^7 | Total cells (×10^7) ([4]; 50 nM): 0.26 ×10^7 | Total cells (×10^7) ([4]; 500 nM): 0.14 ×10^7 | Total cells (×10^7) ([4]; 5000 nM): 0.16 ×10^7 | effect on the kinetics of tubulin polymerization ([5]; 0.5 μM): no effect on the kinetics of tubulin polymerization | influence on the effect of Taxol on tubulin polymerization ([5]; 0.5 μM Compound 1 with 3 μM or 30 nM Taxol): did not influence the effect of either high dose (3 μM) or low dose (30 nM) of Taxol on tubulin polymerization | cell death of U937 cells ([6]; 36 hours): less affected | Total cells (×10^6) ([6]; 500 nM): 2.13 ×10^6 | Total cells (×10^6) ([6]; 5000 nM): 2.40 ×10^6 | effect on the accumulation of Taxol (Oregon Green 488-Taxol) at centrosomes (CHO cells): no effect on the accumulation of Taxol at centrosomes | accumulation of ubiquitinated proteins / level of proteasome inhibition compared with Velcade ([7]; 0.5 μM Compound 1 versus Velcade 500 nM (and 5 nM), Western blot): significantly less accumulation of ubiquitinated proteins in cultured cells than Velcade; also recorded: below that of the positive control | increase of ubiquitinated proteins of the cell lysates ([7]; 6 hours of treatment in cell culture): 210.03 | increase of ubiquitinated proteins of the cell lysates ([7]; 24 hours of treatment in cell culture): 243.11 | accumulation of multi-ubiquitinated proteins ([7]; MDA-435 cells, 0.5 μM, 6 and 24 hours): induced the accumulation of multi-ubiquitinated proteins
